Data as given in ChEMBL document CHEMBL3045068, “Effect of methomyl and oxamyl soil applications on early control of nematodes and insects” (Pest Manag Sci, 2011).
≈ marks a conversion by molar mass, not a printed value.

Key:
[1] = tested on: Meloidogyne incognita; experiment: Nematicidal activity against second juvenile stage of Meloidogyne incognita (root-knot nematode) infected lima bean plant assessed as emergence at 4 kg ai/ha applied to soil measured up to 14 days post planting under green house conditions (reference value: 83 +/- 5%); assay type: functional
[2] = tested on: Pisum sativum; experiment: Phytotoxicity in Pisum sativum (pea) assessed as plant height at 2 kg ai/ha applied to soil measured up to 7 days post planting at 19 degC (reference value: 6.2 +/- 0.6 cm); assay type: organism-based; settings: lathyrus oleraceus, in vivo, other, 168 h
[3] = tested on: Bemisia tabaci; experiment: Insecticidal activity against second-instar […] stage of Bemisia tabaci (sweet potato whitefly) infested cotton assessed as mortality applied to soil after 6 days; assay type: functional
[4] = tested on: Pisum sativum; experiment: Phytotoxicity in Pisum sativum (pea) assessed as root dry weight at 4 kg ai/ha applied to soil measured up to 7 days post planting at 27 degC under green house conditions (reference value: 0.33 +/- 0.075 g); assay type: organism-based; settings: lathyrus oleraceus, in vivo, other, 168 h
[5] = tested on: Meloidogyne incognita; experiment: Nematicidal activity against second juvenile stage of Meloidogyne incognita (root-knot nematode) infected lima bean plant assessed as shoot dry weight at 3 kg ai/ha applied to soil measured up to 7 days post planting under green house conditions (reference value: 1.84 +/- 0.18 g); assay type: functional
[6] = tested on: Meloidogyne incognita; experiment: Nematicidal activity against second juvenile stage of Meloidogyne incognita (root-knot nematode) infected pea plant assessed as root dry weight at 4 kg ai/ha applied to soil measured up to 14 days post planting under green house conditions (reference value: 0.25 +/- 0.041 g); assay type: functional
[7] = tested on: Meloidogyne incognita; experiment: Nematicidal activity against second juvenile stage of Meloidogyne incognita (root-knot nematode) infected lima bean plant assessed as shoot dry weight at 3 kg ai/ha applied to soil measured up to 14 days post planting under green house conditions (reference value: 1.84 +/- 0.18 g); assay type: functional
[8] = tested on: Meloidogyne incognita; experiment: Nematicidal activity against second juvenile stage of Meloidogyne incognita (root-knot nematode) infected lima bean plant assessed as root dry weight at 2 kg ai/ha applied to soil measured during planting under green house conditions (reference value: 0.5 +/- 0.052 g); assay type: functional
[9] = tested on: Pisum sativum; experiment: Phytotoxicity in Pisum sativum (pea) assessed as plant height at 4 kg ai/ha applied to soil measured up to 7 days post planting at 19 degC (reference value: 6.2 +/- 0.6 cm); assay type: organism-based; settings: lathyrus oleraceus, in vivo, other, 168 h
[10] = tested on: Meloidogyne incognita; experiment: Nematicidal activity against second juvenile stage of Meloidogyne incognita (root-knot nematode) infected pea plant assessed as root fresh weight at 4 kg ai/ha applied to soil measured up to 14 days post planting under green house conditions (reference value: 1.83 +/- 0.3 g); assay type: functional
[11] = tested on: Myzus persicae; experiment: Insecticidal activity against Myzus persicae (green peach aphid) infested tomato assessed as mortality applied through foliar spray after 5 days; assay type: functional
[12] = tested on: Meloidogyne incognita; experiment: Nematicidal activity against second juvenile stage of Meloidogyne incognita (root-knot nematode) infected lima bean plant assessed as root dry weight at 4 kg ai/ha applied to soil measured up to 14 days post planting under green house conditions (reference value: 0.5 +/- 0.052 g); assay type: functional
[13] = tested on: Phaseolus lunatus; experiment: Phytotoxicity in Phaseolus lunatus (lima bean) root assessed as root dry weight at 0.56 kg ai/ha applied to soil under green house conditions (reference value: 0.36 +/- 0.071 g); assay type: organism-based; settings: in vivo, other
[14] = tested on: Meloidogyne incognita; experiment: Nematicidal activity against second juvenile stage of Meloidogyne incognita (root-knot nematode) infected lima bean plant assessed as emergence at 2 kg ai/ha applied to soil measured during planting under green house conditions (reference value: 83 +/- 5%); assay type: functional
[15] = tested on: Meloidogyne incognita; experiment: Nematicidal activity against second juvenile stage of Meloidogyne incognita (root-knot nematode) infected lima bean plant assessed as reduction in root gall index at 2 kg ai/ha applied to soil measured during planting under green house conditions (reference value: 7 +/- 0.27%); assay type: functional
[16] = tested on: Phaseolus lunatus; experiment: Phytotoxicity in Phaseolus lunatus (lima bean) plant assessed as emergence at 3.12 kg ai/ha applied to soil measured up to 14 days under green house conditions (reference value: 70 +/- 16%); assay type: organism-based; settings: in vivo, other, 336 h
[17] = tested on: Phaseolus lunatus; experiment: Phytotoxicity in Phaseolus lunatus (lima bean) root assessed as root dry weight at 2.56 kg ai/ha applied to soil measured up to 14 days under green house conditions (reference value: 0.36 +/- 0.071 g); assay type: organism-based; settings: in vivo, other, 336 h
[18] = tested on: Spodoptera exigua; experiment: Insecticidal activity against Spodoptera exigua infested tomato assessed as mortality applied to soil after 72 hr; assay type: functional
[19] = tested on: Meloidogyne incognita; experiment: Nematicidal activity against second juvenile stage of Meloidogyne incognita (root-knot nematode) infected pea plant assessed as reduction in root gall index at 4 kg ai/ha applied to soil measured up to 14 days post planting under green house conditions (reference value: 9.7 +/- 0.30%); assay type: functional
[20] = tested on: Phaseolus lunatus; experiment: Phytotoxicity in Phaseolus lunatus (lima bean) root assessed as root dry weight at 2.12 kg ai/ha applied to soil measured up to 7 days under green house conditions (reference value: 0.36 +/- 0.071 g); assay type: organism-based; settings: in vivo, other, 168 h
[21] = tested on: Meloidogyne incognita; experiment: Nematicidal activity against second juvenile stage of Meloidogyne incognita (root-knot nematode) infected pea plant assessed as plant emergence at 3 kg ai/ha applied to soil measured up to 7 days post planting under green house conditions (reference value: 75 +/- 13%); assay type: functional
[22] = tested on: Pisum sativum; experiment: Phytotoxicity in Pisum sativum (pea) assessed as emergence at 2 kg ai/ha applied to soil measured up to 7 days post planting at 27 degC under green house conditions (reference value: 70 +/- 3.3%); assay type: organism-based; settings: lathyrus oleraceus, in vivo, other, 168 h
[23] = tested on: Meloidogyne incognita; experiment: Nematicidal activity against second juvenile stage of Meloidogyne incognita (root-knot nematode) infected lima bean plant assessed as emergence at 3 kg ai/ha applied to soil measured up to 7 days post planting under green house conditions (reference value: 83 +/- 5%); assay type: functional
[24] = tested on: Pisum sativum; experiment: Phytotoxicity in Pisum sativum (pea) assessed as plant fresh weight at 3 kg ai/ha applied to soil measured up to 7 days post planting at 27 degC under green house conditions (reference value: 3.9 +/- 0.83 g); assay type: organism-based; settings: lathyrus oleraceus, in vivo, other, 168 h
[25] = tested on: Meloidogyne incognita; experiment: Nematicidal activity against second juvenile stage of Meloidogyne incognita (root-knot nematode) infected lima bean plant assessed as shoot dry weight at 2 kg ai/ha applied to soil measured up to 7 days post planting under green house conditions (reference value: 1.84 +/- 0.18 g); assay type: functional
[26] = tested on: Pisum sativum; experiment: Phytotoxicity in Pisum sativum (pea) assessed as emergence at 2 kg ai/ha applied to soil measured up to 7 days post planting at 19 degC relative to untreated control; assay type: organism-based; settings: lathyrus oleraceus, in vivo, other, 168 h
[27] = tested on: Frankliniella occidentalis; experiment: Insecticidal activity against Frankliniella occidentalis (western flower thrips) infested beans assessed as mortality applied to soil after 7 days; assay type: functional
[28] = tested on: Meloidogyne incognita; experiment: Nematicidal activity against second juvenile stage of Meloidogyne incognita (root-knot nematode) infected pea plant assessed as root fresh weight at 4 kg ai/ha applied to soil measured up to 7 days post planting under green house conditions (reference value: 1.83 +/- 0.3 g); assay type: functional
[29] = tested on: Solanum lycopersicum; experiment: Phytotoxicity in Solanum lycopersicum (tomato) assessed as concentration required to cause foliar edge burn applied to soil after 5 weeks; assay type: organism-based; settings: in vivo, 840 h

CNC(=O)ON=C(C)SC [METHOMYL]
Activity [1]: 83%
Activity [2]: 7.3 cm
LC90 [3]: 1119 µg/mL (≈ 6900 µM)
LC50 ([3]; Bemisia tabaci, soil, 144 h): 673 µg/mL (≈ 4150 µM)
Activity [4]: 0.28 g
Activity [5]: 1.39 g
Activity [6]: 0.31 g
Activity [7]: 1.55 g
Activity [8]: 0.36 g
Activity [9]: 6.3 cm
Activity [10]: 1.36 g
LC90 [11]: 44 µg/mL (≈ 271 µM)
LC50 ([11]; Myzus persicae, foliar, 120 h): 9 µg/mL (≈ 55.5 µM)
Activity [12]: 0.27 g
Activity [13]: 0.35 g
Activity [14]: 100%
Root_galling_index [15]: 0%
Activity [16]: 60%
Activity [17]: 0.31 g
LC90 [18]: 30 µg/mL (≈ 185 µM)
LC50 ([18]; Spodoptera exigua, soil, 72 h): 18 µg/mL (≈ 111 µM)
Root_galling_index [19]: 0%
Activity [20]: 0.2 g
Activity [21]: 13%
Activity [22]: 50%
Activity [23]: 83%
Activity [24]: 3.3 g
Activity [25]: 1.83 g
Activity [26]: 93%
LC90 [27]: 36 µg/mL (≈ 222 µM)
LC50 ([27]; Frankliniella occidentalis, soil, 168 h): 22 µg/mL (≈ 136 µM)
Activity [28]: 1.59 g
Activity [29]: 100 µg/mL
